Experimental data as given in patent US20180049996A1, “THERAPEUTIC AGENT FOR CHRONIC RESPIRATORY DISEASE AND COMPOSITION FOR INHIBITING CARDIAC FIBROSIS” (NIPPON HYPOX LABORATORIES INCORPORATED, priority 2015, published 2018).

Columns and labels:
[1] = system: Pulmonary Fibrosis Induced by Bleomycin; assay: Body weight and relative weight of lungs, pulmonary fibrosis induced by bleomycin; format: in vivo, male SD rats; settings: test groups 2 and 3: bleomycin 7.5 mg/kg + HTHQ 50 or 200 mg/kg/day oral; day 20; compared to bleomycin-single group, p<0.05
Protocol: Bleomycin is used to produce disease-model animals of interstitial pneumonia. The bleomycin and 2,3,5-trimethylhydroquinone-1-hexyl ether (HTHQ) as the hydroquinone derivative represented by the general formula (1) described above of the present invention were simultaneously administered to male SD rats of 10 week old after birth to examine the effect of the action. The test groups consisted of the control group to which sterile saline was administered; test group 1 to which bleomycin (7.5 mg/kg body weight) alone was administered; test group 2 to which bleomycin (7.5 mg/kg body weight) and HTHQ (50 mg/kg body weight/day) were administered in combination; and test group 3 to which bleomycin (7.5 mg/kg body weight) and HTHQ (200 mg/kg body weight/day) were administered in combination.
In test groups 1 to 3, bleomycin was orally administered in a single dose. In test groups 2 and 3, 2,3,5-trimethylhydroquinone-1-hexyl ether (HTHQ) was daily orally administered for 10 or 20 days starting from 24 h after the administration of bleomycin. In test group 1, olive oil, which was used as a solvent of HTHQ, was daily orally administered at 10 mL/kg/day starting from 24 h after the administration of bleomycin. The number of animals in each group was 16. 8 animals of each group were sacrificed on days 10 and 20 after the administration of bleomycin and measurement of body weight, lung autopsy, histopathologic examination of lungs and bronchoalveolar lavage examination were conducted.
The body weight of the rats in the control group increased over time during the test period. […] The weight of the interstitial tissue of lungs tends to increase and the relative weight of lungs tends to rise when the tissue fibroses. […] Thus, it was expected that the degree of the progression of pulmonary fibrosis of the rats in test groups 2 and 3, to which HTHQ was administered, was less than the rats in test group 1.

IL-4 = IL-4 level in BAL fluid (ELISA), ovalbumin asthma model; format: in vivo, BALB/c female mice; settings: HTHQ 20 and 40 mg/kg/day oral; compared to OVA group
Protocol: 6 week old BALB/c female mice were purchased and the mice were divided into 5 groups with 5 animals per group shown in Table 3 below after habituation breeding of about 2 weeks.
The test was conducted on the schedule of sensitization, causing diseases and administration of test materials shown in FIG. 12. “IP” in FIG. 12 refers to ovalbumin sensitization treatment by the intraperitoneal administration of ovalbumin/aluminum hydroxide, and “IH” refers to inhalation exposure treatment of ovalbumin, and “PO” refers to the administration of the test materials. […]
All mice were euthanized by intraperitoneal injection of pentobarbital (Hanrimu pharmaceutical, South Korea) at 50 mg/kg and the bronchi were excised on day 25 of the test. […] After preparing slide samples from 100 μL of BAL cell fluid using Cytospin (4° C., 1000 rpm×5 min), the cell numbers of inflammatory cells (eosinophils, macrophages, lymphocytes and neutrophils) present in the BAL fluid were counted using a Diff-Quik stain kit.
The supernatant of the BAL fluid stored was taken out of the super-cryostat and IL-4, IL-5 and IL-13 levels were measured as the pro-inflammatory cytokine contents in the supernatant of the BAL fluid. A quantitative ELISA kit (a product from R&D systems) and a microplate reader (a product from Bio-Rad Laboratories, Inc.) were used for the measurement and the measurement wavelength was 450 nm.

[2] = system: Myocardial Disorder Induced by Doxorubicin; assay: Histopathologic examination of the hearts (transmission electron microscope), myocardial disorder induced by doxorubicin; format: in vivo, female SD rats; settings: Test group 2: doxorubicin + HTHQ 50 mg/kg; day 7
Protocol: Doxorubicin is used to produce disease-model animals of cardiomyopathy. The doxorubicin and 2,3,5-trimethylhydroquinone-1-hexyl ether (HTHQ) as the hydroquinone derivative represented by the general formula (1) described above of the present invention were simultaneously administered to female SD rats of 4 week old after birth to examine the effect of the action. The test groups consisted of the control group to which sterile saline was administered; test group 1 to which doxorubicin (13 mg/kg body weight) alone was administered; test group 2 to which doxorubicin (13 mg/kg body weight) and HTHQ (50 mg/kg body weight) were administered in combination; and test group 3 to which doxorubicin (13 mg/kg body weight), HTHQ (50 mg/kg body weight) and recombinant human erythropoietin (400 IU/kg body weight) were administered in combination. […] The test group 3 is used to confirm the presence or absence of the inhibitory effect brought about by combining HTHQ and rHuEPO on myocardial disorder.
Doxorubicin was orally administered in a single dose to the rats in test groups 1 to 3. 2,3,5-trimethylhydroquinone-1-hexyl ether (HTHQ) was orally administered to the rats in test groups 2 and 3 twice in total: 3 days before the administration of doxorubicin and on the day of the administration. […]

CCCCCCOc1cc(C)c(O)c(C)c1C [HTHQ, 2,3,5-trimethylhydroquinone-1-hexyl ether]
relative weight of lungs [1]: significantly low
IL-4 content in BAL fluid (IL-4): significantly reduced
findings in myocardial cells (transmission electron microscope) [2]: loss of striations was alleviated
